Tests used:
[1] = molecular target: T1, TIE2 intracellular domain/c-fms extracellular domain (TIE2/c-fms) chimeric protein (Homo sapiens, UniProt Q02763); experiment: TIE-2 Autophosphorylation Assay (TIE2-C), ELISA; type: cell-based; details: TIE2/c-fms expressing mouse 3T3 cells, MCSF activation, read-out: TIE2-C pIC50 (converted)
T1 construct: TIE2 intracellular domain/c-fms extracellular domain (TIE2/c-fms) chimeric protein; expressed in transfected cells; host or cells: mouse 3T3 cells
Method: TIE-2 Autophosphorylation Assay (TIE2-C)
The TIE-2 autophosphorylation assay used an ELISA method and a TIE2 intracellular domain/c-fms extracellular domain (TIE2/c-fms) chimeric protein expressing mouse 3T3 cells. This assay measured the autophosphorylation level of TIE2 protein expressed in cells. The cells were cultured in high glucose DMEM (Sigma) containing 10% serum at 37° C. in a humidified 10% CO2, 90% air incubator. The test compound (diluted from a 10 mM stock in DMSO, final DMSO concentration was 0.1%) was incubated with TIE2/c-fms expressing cells for 1 hr in serum free DMEM in 96 well plates followed by the activation of TIE2/c-fms receptor using c-fms ligand, MCSF (macrophage colony stimulating factor). […] The cell extracts were transferred into Rat anti-c-fms antibody coated 96 well plates and incubated for 12 hrs at 4 degrees. The extracts were removed by aspiration and the plate was incubated with biotinylated anti-phosphotyrosine antibody, PT66 (Sigma) and then with HRP (Horseradish Peroxidase)-labeled streptavidin (PIERCE). The optical density at 450 nm derived from HRP catalyzed TMB was measured with an ARVO multilabel counter. (Wallac Berthold Japan). The percent inhibition of activity was calculated relative to blank control wells. […] The IC50 values were converted to pIC50 values, i.e., −log IC50 in Molar concentration.

[2] = molecular target: T2, GST-VEGFR2 (Homo sapiens, UniProt P35968); experiment: VEGF-R2 Enzyme Assay (VEGF-E), LANCE method; type: biochemical; details: GST-VEGFR2, 75 uM ATP; read-out: VEGF-E pIC50 (converted)
T2 construct: GST-VEGFR2, baculovirus expressed recombinant constructs of the intracellular domains of human TIE2 tagged by GST; made in house
T2 sequence (P35968 786-1356 limits assumed): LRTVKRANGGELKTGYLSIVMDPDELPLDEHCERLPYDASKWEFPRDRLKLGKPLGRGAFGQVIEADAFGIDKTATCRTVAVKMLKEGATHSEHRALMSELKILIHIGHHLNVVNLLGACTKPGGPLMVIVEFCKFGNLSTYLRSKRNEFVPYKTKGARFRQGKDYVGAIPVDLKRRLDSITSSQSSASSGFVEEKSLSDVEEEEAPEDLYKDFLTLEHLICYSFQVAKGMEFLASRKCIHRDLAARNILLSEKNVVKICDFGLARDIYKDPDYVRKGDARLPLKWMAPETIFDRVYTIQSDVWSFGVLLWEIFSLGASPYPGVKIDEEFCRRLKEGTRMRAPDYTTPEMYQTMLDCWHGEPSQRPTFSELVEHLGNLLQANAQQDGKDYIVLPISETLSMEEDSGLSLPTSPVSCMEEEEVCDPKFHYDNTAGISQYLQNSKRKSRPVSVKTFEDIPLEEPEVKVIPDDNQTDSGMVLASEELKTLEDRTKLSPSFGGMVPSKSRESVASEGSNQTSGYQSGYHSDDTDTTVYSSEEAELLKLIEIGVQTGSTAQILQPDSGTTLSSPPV
Method: VEGF-R2 Enzyme Assay (VEGF-E)
The VEGF enzyme assay used the LANCE method (Wallac) and GST-VEGFR2, baculovirus expressed recombinant constructs of the intracellular domains of human […] tagged by GST. […] The reaction was stopped by the addition of EDTA (final concentration 50 mM). […] The APC signal was measured using an ARVO multilabel counter (Wallac Berthold, Japan). The percent inhibition of activity was calculated relative to blank control wells. […] The IC50 values were converted to pIC50 values, i.e., −log IC50 in Molar concentration.

[3] = test system: Human umbilical cord endothelial cells (HUVEC); experiment: VEGF-Driven Cellular Proliferation Assay, BrdU Incorporation Assay (VEGF-C); type: cell-based; details: Homo sapiens, read-out: VEGF-C pIC50 (converted)
Method: VEGF-Driven Cellular Proliferation Assay. BrdU Incorporation Assay (VEGF-C)
Human umbilical cord endothelial cells (HUVEC, Clonetics, CC2519) were passaged in Type I collagen-coated 100-mm petridishes in EGM-MV medium (Clonetics, CC3125) at 37 C in a humidified 5% CO2, 95% air incubator. […] After incubation overnight at 37° C., the media were replaced with 100 ul of M199 serum-free medium containing compounds at various concentrations with 0.6% DMSO and gentamicin. The compounds were diluted in serum-free M199 medium from 10 mM stock solutions prepared in 100% DMS0. […] The cells were pulsed with bromodeoxyuridine (BrdU at 10 uM in serum-free M199) at 37° C. for an additional 24 h. […] The optical density at 450 nm was measured with a multilabel counter (ARVO SX, Wallac). The percent inhibition of cell growth was calculated relative to blank control wells. […] The IC50 values were converted to pIC50 values, i.e., −log IC50 in Molar concentration.

[4] = molecular target: T3, GST-TIE2 (intracellular domains of human TIE2) (Homo sapiens, UniProt Q02763); experiment: TIE-2 Enzyme assay (TIE2-E), LANCE method; type: biochemical; details: GST-TIE2, 80 uM ATP, D1–15 peptide; read-out: TIE2-E pIC50 (converted)
T3 construct: made in house
T3 sequence (Q02763 762-1104): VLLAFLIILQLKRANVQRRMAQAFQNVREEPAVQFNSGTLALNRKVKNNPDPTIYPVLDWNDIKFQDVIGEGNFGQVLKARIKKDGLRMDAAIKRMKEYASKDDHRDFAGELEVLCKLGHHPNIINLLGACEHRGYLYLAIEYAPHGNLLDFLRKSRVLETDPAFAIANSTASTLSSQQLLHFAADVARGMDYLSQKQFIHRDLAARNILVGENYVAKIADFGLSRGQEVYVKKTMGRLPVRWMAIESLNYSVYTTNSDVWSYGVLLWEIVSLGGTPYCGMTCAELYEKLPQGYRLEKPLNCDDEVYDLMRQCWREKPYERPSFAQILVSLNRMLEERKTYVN
Method: TIE-2 Enzyme assay (TIE2-E)
Preactivated GST-TIE2 was incubated for 30 mins at room temperature in 96 well plates with 1 uM D1–15 peptide, 80 uM ATP, 10 mM MgCl2, 0.1 mg/ml BSA and the test compound (diluted from a 10 mM stock in DMSO, final DMSO concentration was 2.4%) in 1 mM HEPES (pH 7.4). The reaction was stopped by the addition of EDTA (final concentration 45 mM). Streptavidin linked-APC (allophycocyanin, Molecular Probe) and Europium-labeled anti-phosphorylated tyrosine antibody (Wallac) were then added at the final concentration of 17 ug/well and 2.1 ug/well, respectively. The APC signal was measured using an ARVO multilabel counter. (Wallac Berthold Japan). The percent inhibition of activity was calculated relative to blank control wells. […] The IC50 values were converted to pIC50 values, i.e., −log IC50 in Molar concentration.

[5] = molecular target: T4, Recombinant GST-Tie2 (Homo sapiens, UniProt Q02763); experiment: Tie2 Fluorescence Polarization Kinase Activity Assay (TIE2-FP); type: biochemical; details: 200 μM ATP, activated Tie2, fluorescence polarization
T4 construct: GST
T4 sequence (Q02763 23-1124): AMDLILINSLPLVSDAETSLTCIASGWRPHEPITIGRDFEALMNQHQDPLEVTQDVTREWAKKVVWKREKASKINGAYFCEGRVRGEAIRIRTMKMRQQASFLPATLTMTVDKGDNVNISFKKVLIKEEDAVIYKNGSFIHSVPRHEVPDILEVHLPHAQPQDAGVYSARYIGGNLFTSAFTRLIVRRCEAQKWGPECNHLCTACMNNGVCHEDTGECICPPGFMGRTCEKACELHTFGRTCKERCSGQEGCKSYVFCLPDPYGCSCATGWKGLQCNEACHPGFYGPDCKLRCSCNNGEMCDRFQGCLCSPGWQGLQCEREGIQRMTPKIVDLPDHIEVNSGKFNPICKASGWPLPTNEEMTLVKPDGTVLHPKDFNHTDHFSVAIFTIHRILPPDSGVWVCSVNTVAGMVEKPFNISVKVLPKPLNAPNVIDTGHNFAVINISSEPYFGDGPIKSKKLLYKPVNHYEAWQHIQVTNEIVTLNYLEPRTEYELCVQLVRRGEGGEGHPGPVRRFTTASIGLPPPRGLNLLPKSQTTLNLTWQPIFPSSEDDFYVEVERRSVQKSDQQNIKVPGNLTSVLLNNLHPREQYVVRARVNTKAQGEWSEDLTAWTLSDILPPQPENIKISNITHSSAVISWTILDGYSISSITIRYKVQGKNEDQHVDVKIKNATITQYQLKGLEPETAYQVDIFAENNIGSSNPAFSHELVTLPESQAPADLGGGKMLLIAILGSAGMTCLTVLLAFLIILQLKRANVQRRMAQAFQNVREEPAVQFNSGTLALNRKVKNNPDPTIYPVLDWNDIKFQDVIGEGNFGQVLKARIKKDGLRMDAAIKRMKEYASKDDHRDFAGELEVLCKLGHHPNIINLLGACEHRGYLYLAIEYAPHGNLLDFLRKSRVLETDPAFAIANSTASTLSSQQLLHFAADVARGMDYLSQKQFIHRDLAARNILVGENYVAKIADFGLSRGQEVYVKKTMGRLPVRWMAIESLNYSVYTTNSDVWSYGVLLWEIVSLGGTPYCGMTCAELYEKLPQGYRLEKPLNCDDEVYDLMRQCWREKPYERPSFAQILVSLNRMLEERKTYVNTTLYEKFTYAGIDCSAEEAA
Method: Tie2 Fluorescence Polarization Kinase Activity Assay: (TIE2-FP)
Activation of Recombinant Tie2 Activation:
Recombinant GST-Tie2 was activated by incubating the enzyme in 20 mM Tris-HCl, pH 7.5, 12 mM MgCl2, 100 mM NaCl, 20 μM sodium vanidate, 1 mM DTT and 300 μM ATP at room temperature for 2 hours. […] The activated enzyme was stored as aliquots at −80° C. in 20 mM Tris-HCl, pH 7.5 and 11 mM NaCl.
The final assay conditions were 50 mM HEPES, pH 7.5, 5% DMSO (when screening compounds), 200 μM ATP, 5 mM MgCl2, 1 mM DTT, 50 μM sodium vanidate, 1 nM activated enzyme, and 200 μM peptide. […] Panvera Anti-phosphotyrosine antibody (Cat#P2840) and PTK Green Tracer (Cat#P2842) were used to detect the phosphorylated peptide. […] IC50's were then determined from the % polarization using normal calculation methods.

T1 sequence (Q02763 770-1124 limits assumed, change not shown): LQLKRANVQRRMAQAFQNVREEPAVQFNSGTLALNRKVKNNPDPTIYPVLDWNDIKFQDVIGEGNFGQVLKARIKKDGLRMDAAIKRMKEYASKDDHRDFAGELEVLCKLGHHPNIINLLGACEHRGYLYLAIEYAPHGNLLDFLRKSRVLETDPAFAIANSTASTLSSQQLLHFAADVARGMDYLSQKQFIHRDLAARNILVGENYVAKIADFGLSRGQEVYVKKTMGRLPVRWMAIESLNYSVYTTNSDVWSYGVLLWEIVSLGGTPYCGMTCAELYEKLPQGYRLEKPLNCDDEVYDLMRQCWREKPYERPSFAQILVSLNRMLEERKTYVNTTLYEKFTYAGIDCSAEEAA
T1 sequence (P07333 20-517 partner limits assumed): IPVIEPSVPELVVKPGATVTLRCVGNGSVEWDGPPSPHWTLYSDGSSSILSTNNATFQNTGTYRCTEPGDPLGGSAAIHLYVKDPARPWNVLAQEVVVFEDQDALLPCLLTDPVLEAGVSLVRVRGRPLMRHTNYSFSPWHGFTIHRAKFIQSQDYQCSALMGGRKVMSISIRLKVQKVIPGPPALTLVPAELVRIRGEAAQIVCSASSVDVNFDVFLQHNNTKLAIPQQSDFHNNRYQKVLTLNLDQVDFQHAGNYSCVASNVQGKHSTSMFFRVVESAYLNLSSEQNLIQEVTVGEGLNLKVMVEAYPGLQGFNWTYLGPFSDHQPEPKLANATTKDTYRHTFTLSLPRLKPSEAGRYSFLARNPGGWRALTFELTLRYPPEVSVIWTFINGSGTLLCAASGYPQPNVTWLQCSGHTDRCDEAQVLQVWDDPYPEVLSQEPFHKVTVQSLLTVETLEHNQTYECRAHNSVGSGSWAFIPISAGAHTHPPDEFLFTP
T1 sequence (P09603 33-190 partner limits assumed): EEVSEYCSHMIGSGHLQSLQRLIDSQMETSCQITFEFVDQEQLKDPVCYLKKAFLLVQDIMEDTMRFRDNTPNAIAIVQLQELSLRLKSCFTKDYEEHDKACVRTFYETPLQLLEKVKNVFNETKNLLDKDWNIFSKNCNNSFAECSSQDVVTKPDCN

Row | IC50 [1] [nM] | IC50 [2] [nM] | IC50 [4] [nM] | IC50 [5] [nM] | Structure (SMILES) | IC50 [3] [µM]
1 | 100 to 1000 | < 100 | 100 to 1000 |  | CNS(=O)(=O)c1cccc(-c2oc3ncnc(N)c3c2-c2ccc(-c3ccccc3)cc2)c1 [Example 200, 4-Amino-3-(4-biphenyl)-2-(3-(N-methylsulfonyl)phenyl)furo[2,3-d]pyrimidine] | 1 to 10
2 |  |  |  | 1.8 | Nc1ncnc2scc(-c3ccc(NC(=O)Nc4cc(C(F)(F)F)ccc4F)cc3)c12 [Example 276, 4-Amino-3-(4-((2-fluoro-5-(trifluoromethyl)phenyl)aminocarbonylamino)phenyl)thieno[2,3-d]pyrimidine] | 

Reference: patent publication US7427623B2, “4-Amino-2,3-disubstituted thieno[2,3-d]pyrimidines and pharmacetical compositions thereof” (SmithKline Beecham Corporation, priority 2001, dated 2008)
